Where “and” joins values, the source holds several entries; their conditions need not be identical. Equal entries are not always repeated. Where two headings read alike, the source gives them in different places.
How the values were obtained:
[1] = N2 at 77 K, relative pressures 0.05 to 0.3; mesylate
Description: The specific surface area values disclosed in the present disclosure have been obtained by means of a specific surface area analysis technique based on the BET (Brunauer, Emmett and Teller) theory, which is a well-accepted theory known in the art for the calculation of surface areas of solids by means of measuring their physical adsorption of gas molecules (See S. Brunauer, P. H. Emmett and E. Teller, J. Am. Chem. Soc., 1938, 60, 309). In particular, the specific surface area values measured have been calculated from the BET surface area plot obtained by measuring the quantity of nitrogen gas molecules adsorbed by a weighted amount of solid at different relative pressures (P/P0) within the range 0.05 to 0.3, at 77K. Precisely, the measurement of the adsorption of gas molecules was carried out by means of a Micromeritics™ Gemini V equipment having the characteristics as set out below. Namely, the gas used for adsorption measure was nitrogen gas. […] The sample for analysis was degassed (at 30° C. for 10 minutes and at 130° C. for 90 minutes). The determination of the adsorption of nitrogen was measured at 77K and for twelve relative pressures sufficiently dispersed within in the range of 0.05 to 0.3 (i.e. twelve absolute pressures in the range of 38.860001 mmHg to 230.464996 mmHg relative to a saturated pressure of 765.705017 mmHg).
The sample for analysis was degassed at 30° C. for 10 minutes and at 130° C. for 90 minutes.

[2] = by volume, wet dispersion in Isopar G, sonicated 3 minutes; mesylate
Description: The particle size parameters measured in the present disclosure have been obtained by means of laser light diffraction technique, and specifically by means of a Malvern Mastersizer S particle size analyzer having characteristics as set out below. Namely, the laser source used was a 2 milliwatt Helium/neon laser (633 nm wavelength); the detection system was a Fourier Transform lens system; the sample was run using a […]; the sample unit was a sample unit for wet measurement, and particularly was a MS1-Small volume Sample Dispersion Unit stirred cell. The wet dispersion was prepared by using a solution of 1.5 g of Soybean Lecithin in 200 mL of Isopar G as a sample dispersant, and the dispersion was controlled by stirring the unit cell. […] The characterization parameters (volume distributions) were measured for at least six times for each sample, and the result is a mean of said measured values for each sample.
A 300RF mm lens and a beam length of 2.4 mm were used. Preparation of sample dispersant: 1.5 g of Soybean Lecithin was added to 200 mL of Isopar G, and the mixture was mixed gently until Lecithin dissolved. […] The paste was delivered to the previously background and corrected measuring cell filled with dispersant (Isopar G) until the obscuration reached the desired level. The suspension was sonicated for 3 minutes. Volume distributions were obtained for at least six measures. After completing the measurements, the sample cell was emptied and cleaned, refilled with suspending medium, and the sampling procedure repeated again. For characterization, the values of D10, D50 and D90 (by volume) were specifically listed, each one being the mean of the measured values available for each characterization parameter.
The notation Dx [also written as D(v, 0.X)] means that X % of the particles have a diameter less than a specified diameter D. Thus a D90 [or D(v, 0.9)] of 100 μm means that 90% of the particles have a diameter less than 100 μm.

[3] = Method: The substantial absence of agglomeration in accordance with the present invention can be determined by visual inspection and/or by optical microscopy. […] That is, the smallest agglomerate to be observed by particle size analysis would be the agglomerate resultant of the union of a single crystal with another which would lead to an increase of 100% in the D90 and/or the D50 measured value.
The chromatographic separation was carried out in a Chiralpak IC, 5 μm, 250×4.6 mm I.D column; at 30° C.
The mobile phase was prepared by mixing 950 mL of n-hexane, 40 mL of 2-propanol, 10 mL of ethanol, 4 mL of trifluoroacetic acid and 1 mL of diethylamine. The mixture was mixed thoroughly.
The chromatograph was equipped with a 265 nm detector, and the flow rate was 1.4 mL per minute.
The test samples were prepared by dissolving the appropriate amount of sample to obtain 10 mg per mL in diluent. The diluent was prepared by mixing 89 mL of mobile phase, 10 mL of 2-propanol and 1 mL of diethylamine. The injection volume was 5 μL.
Samples were taken and analyzed after 1, 2, 3 and 6 months storage.

[4] = 25° C.±1° C., 80%±2% relative humidity, 24 hours
Method: The percentage increase in mass was calculated based on the hygroscopicity method described in the European Pharmacopoeia 5.0 (general chapter 5.11).

[5] = material with D90 of less than 6 μm stored at 25±2° C., 65±5% relative humidity, 5 days; cited from earlier work
[6] = cited from earlier work
[7] = cited from earlier work; remark: listed apart in the source
[8] = heating at 80° C. for 72, 96 or 144 hours, and refluxing in isopropanol for 30 hours; cited from earlier work
[9] = WO 2008/019871 Example 8, prepared in isopropanol; cited from earlier work

| SMILES | Specific Surface Area (BET) [1] | Particle size D(v, 0.1) [2] | Particle size D(v, 0.5) [2] | Particle size D(v, 0.9) [2] | further results |
| --- | --- | --- | --- | --- | --- |
| C#CCN[C@@H]1CCc2ccccc21.CS(=O)(=O)O [Reference Example 2, R-(+)-N-propargyl-1-aminoindan mesylate] | 0.2490 m^2/g | 14.7 μm | 60.2 μm | 143.6 μm |  |
| C#CCN[C@@H]1CCc2ccccc21.CS(=O)(=O)O [Reference Example 1, R-(+)-N-propargyl-1-aminoindan mesylate] | 0.3216 m^2/g | 17.4 μm | 62.6 μm | 118.0 μm |  |
| C#CCN[C@@H]1CCc2ccccc21.CS(=O)(=O)O [Example 4, R-(+)-N-propargyl-1-aminoindan mesylate] | 0.1434 m^2/g | 54.9 μm | 208.5 μm | 464.0 μm | Total impurities (HPLC) ([3]; 1 month, 40±2° C., 75%±5% relative humidity): <0.05%; Total impurities (HPLC) ([3]; 2 months, 40±2° C., 75%±5% relative humidity): <0.05%; Total impurities (HPLC) ([3]; 3 months, 40±2° C., 75%±5% relative humidity): <0.05%; Total impurities (HPLC) ([3]; 6 months, 40±2° C., 75%±5% relative humidity): <0.05%; Total impurities (HPLC) ([3]; Initial sample): <0.05%; % Mass increase [4]: 0.01%; Hygroscopicity (in words) [4]: not hygroscopic material |
| C#CCN[C@@H]1CCc2ccccc21.CS(=O)(=O)O [Example 1, R-(+)-N-propargyl-1-aminoindan mesylate] | 0.0722 m^2/g | 30.6 μm | 89.0 μm | 163.6 μm |  |
| C#CCN[C@@H]1CCc2ccccc21.CS(=O)(=O)O [Reference Example 3, R-(+)-N-propargyl-1-aminoindan mesylate] | 0.0274 m^2/g | 127.5 μm | 311.2 μm | 611 μm and 611.1 μm |  |
| C#CCN[C@@H]1CCc2ccccc21.CS(=O)(=O)O [rasagiline mesylate, R-(+)-N-propargyl-1-aminoindan mesylate] |  |  |  |  | D90 after storage [5]: approximately 151 μm; d(0.9) or D90 after milling ([6]; after milling): 156-189 μm; d(0.9) or D90 before milling ([6]; samples containing large, irregular particles, initial): 386-598 μm; Behaviour of the powder on storage ([7]; 4 weeks at 40° C., 75% relative humidity in an opened container): transforms into a sticky powder; Behaviour of the powder on storage ([7]; 4 weeks at 60° C. in a closed glass bottle): agglomerates; Change in water content on storage ([7]; 4 weeks storage, WO 2008/019871 Example 5): no substantial changes; Appearance [8]: kept an appearance of white powder; Particle size d(0.1) [9]: 13.6±0.05 μm; Particle size d(0.5) [9]: 40.5±0.25 μm; Particle size d(0.9) [9]: 85.7±0.89 μm; Particles below 250 μm [9]: 100% |
| C#CCN[C@@H]1CCc2ccccc21.CS(=O)(=O)O [Example 2, R-(+)-N-propargyl-1-aminoindan mesylate] |  | 37.0 μm | 118.7 μm | 246.7 μm |  |
| C#CCN[C@@H]1CCc2ccccc21.CS(=O)(=O)O [Example 3, R-(+)-N-propargyl-1-aminoindan mesylate] | 0.0474 m^2/g | 37.4 μm | 159.6 μm | 404.2 μm |  |
